Results: patent US20220387375A1, “TRPV1 ACTIVATION-MODULATING COMPLEX MIXTURES OF CANNABINOIDS AND/OR TERPENES” (GBS Global Biopharma, Inc., priority 2018, published 2022)
pEC50: −log10 of the molar value. “Also recorded” adds a separate entry of the source.

Target: T1, TRPV1 (Rattus norvegicus, UniProt O35433)
T1 construct: FLAG; expressed in transfected cells
Assay: Whole-cell patch clamp of TRPV1 currents in HEK293 cells overexpressing TRPV1 (HEK293-V1)
Format: cell-based
Settings: for inward current induced: cannabinoid at 50 (FIGS. 3A, 4A, 6A, 7A), applied at data point 60; for time course of induced TRPV1 current (sustained or inactivating): cannabinoid at 50, 5 μM myrcene or 1 μM capsaicin; for current development and inactivation: constant external calcium, internal Ca2+ 0 nM, 180 nM, 620 nM, FCa (FIGS. 23, 24); for Max I amplitude: 120 s, Ca 1 mM external, unbuffered internal calcium
Method: HEK TRexTRPV1 were cultured in DMEM, 10% Fetal Bovine Serum, 2 mM Lglutamine, 10 μg/ml Blasticidin (Calbiochem, San Diego Calif.), 400 μg/ml Zeocin (InvivoGen, San Diego Calif.), where indicated transgene expression was induced using 1 μg/ml Tetracycline for 16-24 hrs. Unless otherwise indicated, basal expression of TRPV1 without induction was sufficient for these studies, and comparisons were made to untransfected HEK where needed. HEKTRex293 over-expressing human TRPV2, human TRPA1 and human TRPM8 were obtained from SB Drug Discovery (Glasgow, Scotland) and cultured as described above. The cannabinoids and terpenes were assayed in HEK cells that have been transfected with the TRPV1 ion channel protein. These cells are called HEK293-V1 cells.
This technique is used to study ionic currents from HEK293-V1. The voltage across the cell membrane is controlled and the ionic currents associated with changes in voltage are measured. A micropipette tip is pulled to a few micrometers in diameter followed by heating the tip to produce a smooth surface that assists in forming a high resistance seal with the cell membrane. To obtain this high resistance seal, the micropipette is pressed against a cell membrane and suction is applied. The membrane then fuses onto the glass surface creating a high resistance in the gigaohm range. This makes it possible to isolate electronically the ionic currents measured across the membrane patch or across the entire cell.
Patch-clamp experiments were performed in the whole-cell configuration at 21-25° C. Patch pipettes had resistances of 2-3 MΩ. Data was acquired with PatchMaster software (HEKA, Lambrecht, Germany), controlling an EPC-9 amplifier. Voltage ramps of 50 ms spanning the voltage range from −100 to 100 mV were delivered from a holding potential of 0 mV at a rate of 0.5 Hz over a period of 500 ms to 180 seconds (3 minutes). Voltages were corrected for a liquid junction potential of 10 mV. Currents were filtered at 2.9 kHz and digitized at 100 μs intervals. Capacitive currents were determined and corrected before each voltage ramp. The development of currents for a given potential was extracted from individual ramp current records by measuring the current amplitudes at voltages of −80 mV and +80 mV. Data were analyzed with FitMaster (HEKA, Lambrecht, Germany), and IgorPro (WaveMetrics, Lake Oswego, Oreg., USA). Where applicable, statistical errors of averaged data are given as mean±s.e.m with n determinations. The activated current amplitudes are analyzed by nA rather than pA/pF. […] Also the cell size selected for patching was in the 9 -12 pF range.
For patch-clamp recordings, HEK293 cells were kept in a standard sodium-based external Ringer's solution containing (mM): 140 NaCl, 1 CaCl2, 2 MgCl2, 2.8 KCl, 11 glucose, 10 HEPES-NaOH with a pH of 7.2 and osmolarity of 300 mOsmol. To assess the effects of external Calcium (Ca) on TRPV1 inactivation kinetics, Ca at different levels were tested including 0, 1, and 3 mM. In Experiments with zero external Ca, EGTA 10 mM was added and the Na concentration was lowered to 130 mM to maintain standard osmotic conditions at 300 mOsmol. For rapid external solution application and exchanges we used the SmartSquirt delivery system (Auto-Mate Scientific, San Francisco Calif., USA) that included four cryo tubes allowing for solution exchanges within one patch. This system included a ValveLink TTL interface between the electronic valves and the EPC10 amplifier (HEKA, Lambrecht, Germany). This electronic configuration allowed for programmable solution changes via the PatchMaster software (HEKA, Lambrecht, Germany).

[1] = after cannabinoid at 50 (voltage ramp)
[2] = CBD-induced current, internal Ca2+ 0, external Ca2+ 0 mM
[3] = CBD-induced current, internal Ca2+ 0, external Ca2+ 1 mM
[4] = CBD-induced current, internal Ca2+ 0, external Ca2+ 3 mM
[5] = CBD-induced current, internal Ca2+ 180 nM, external Ca2+ 0 mM
[6] = CBD-induced current, internal Ca2+ 180 nM, external Ca2+ 1 mM
[7] = CBD-induced current, internal Ca2+ 180 nM, external Ca2+ 3 mM
[8] = CBD-induced current, internal Ca2+ >620 nM (free Ca2+), external Ca2+ 0 mM
[9] = CBD-induced current, internal Ca2+ >620 nM (free Ca2+), external Ca2+ 1 mM
[10] = CBD-induced current, internal Ca2+ >620 nM (free Ca2+), external Ca2+ 3 mM

T1 sequence (O35433 whole entry): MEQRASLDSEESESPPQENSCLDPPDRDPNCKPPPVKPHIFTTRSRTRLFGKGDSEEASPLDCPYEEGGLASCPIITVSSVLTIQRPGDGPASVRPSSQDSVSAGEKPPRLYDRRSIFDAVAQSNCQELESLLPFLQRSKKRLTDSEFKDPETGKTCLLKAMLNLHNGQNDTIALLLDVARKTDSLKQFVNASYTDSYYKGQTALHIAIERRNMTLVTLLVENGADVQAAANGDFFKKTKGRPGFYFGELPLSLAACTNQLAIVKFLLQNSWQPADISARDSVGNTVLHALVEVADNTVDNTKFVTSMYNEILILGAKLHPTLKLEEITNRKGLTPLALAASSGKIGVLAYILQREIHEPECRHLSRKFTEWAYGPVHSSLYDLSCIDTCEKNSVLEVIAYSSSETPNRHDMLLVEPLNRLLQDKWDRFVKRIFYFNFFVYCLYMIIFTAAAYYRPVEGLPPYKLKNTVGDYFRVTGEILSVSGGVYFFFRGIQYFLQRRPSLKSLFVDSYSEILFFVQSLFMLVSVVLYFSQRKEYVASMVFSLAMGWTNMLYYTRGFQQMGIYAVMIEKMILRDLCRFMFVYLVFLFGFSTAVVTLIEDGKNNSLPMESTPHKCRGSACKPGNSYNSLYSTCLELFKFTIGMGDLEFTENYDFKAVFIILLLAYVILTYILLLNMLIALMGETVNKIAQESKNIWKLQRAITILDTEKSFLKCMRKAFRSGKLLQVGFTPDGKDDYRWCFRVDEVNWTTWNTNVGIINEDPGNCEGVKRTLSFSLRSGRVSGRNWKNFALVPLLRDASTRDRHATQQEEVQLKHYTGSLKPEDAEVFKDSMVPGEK

CCCCCc1cc(O)c2c(c1)OC(C)(C)c1ccc(C)cc1-2 [CBN, Cannabinol]
pEC50: 4.44 | inward and outward current magnitude compared to 50 μM CBN (10 μM CBN): greater inward and outward current magnitude | IV relationship / TRPV1 channel state (after 10 μM CBN): becomes more linear; also recorded: partial state transition from state 1 to state 2 | IV relationship / TRPV1 channel state [1]: outwardly-rectifying IV curve consistent with un-dilated TRPV1 (state 1) | inward current induced: 0.5-2 nA | time course of induced TRPV1 current (sustained or inactivating): rapidly inactivating | current development and inactivation: activated quickly, but rapidly inactivated with a slower kinetic profile | Rate of inactivation (dose 10 micromolar): 0 dpsec^−1 | Time to max (dose 10 micromolar): 174 s | Max I amplitude (dose 10 micromolar): 0.4 nA | Rate of inactivation (dose 30 micromolar): 0 dpsec^−1 | Time to max (dose 30 micromolar): 176 s | Max I amplitude (dose 30 micromolar): 0.6 nA | Rate of inactivation (dose 50 micromolar): .010 dpsec^−1 | Time to max (dose 50 micromolar): 120 s | Max I amplitude (dose 50 micromolar): 1.5 nA | Rate of inactivation (dose 150 micromolar): .019 dpsec^−1 | Time to max (dose 150 micromolar): 82 s | Max I amplitude (dose 150 micromolar): 1.8 nA

C=C(C)[C@@H]1CCC(C)=C[C@H]1c1c(O)cc(CCCCC)cc1O [CBD, Cannabidiol]
pEC50: 4.52 | type of TRPV1 current recorded (CBD 30 μM, Ca 0 internally and externally): outwardly rectifying current | transition to the pore-dilated state (CBD up to 150 μM, induction times 0-25 hours, currents about 10 nA): no transition to the pore-dilated state | Max rate of activation (CBD-induced current (30 μM, FIG. 22), internal Ca2+ 0, external Ca2+ 0 mM): 1.1% per S | Max rate of activation (CBD-induced current (30 μM, FIG. 22), internal Ca2+ 0, external Ca2+ 1 mM): 1.9% per S | Max rate of activation (CBD-induced current (30 μM, FIG. 22), internal Ca2+ 0, external Ca2+ 3 mM): 3% per S | Rate of inactivation [2]: 0.41% per S | Time to max amplitude [2]: 136 S | Rate of inactivation [3]: 0.82% per S | Time to max amplitude [3]: 94 S | Rate of inactivation [4]: 0.94% per S | Time to max amplitude [4]: 82 S | Max rate of activation [5]: 1.6% per S | Rate of inactivation [5]: 0.67% per S | Time to max amplitude [5]: 108 S | Max rate of activation [6]: 1.6% per S | Rate of inactivation [6]: 0.71% per S | Time to max amplitude [6]: 116 S | Max rate of activation [7]: 2.4% per S | Rate of inactivation [7]: 0.72% per S | Time to max amplitude [7]: 92 S | Max rate of activation [8]: 0.83% per S | Rate of inactivation [8]: 0.49% per S | Time to max amplitude [8]: 160 S | Max rate of activation [9]: 1.5% per S | Rate of inactivation [9]: 1.1% per S | Time to max amplitude [9]: 120 S | Max rate of activation [10]: 2.7% per S | Rate of inactivation [10]: 1% per S | Time to max amplitude [10]: 88 S | IV relationship / TRPV1 channel state [1]: outwardly-rectifying IV curve consistent with un-dilated TRPV1 (state 1) | inward current induced: 4-6 nA | time course of induced TRPV1 current (sustained or inactivating): sustained | current development and inactivation: gradual current development, which inactivated only when internal calcium is buffered above zero | Rate of inactivation (dose 10 micromolar): 0 dpsec^−1 | Time to max (dose 10 micromolar): 178 s | Max I amplitude (dose 10 micromolar): 0.8 nA | Rate of inactivation (dose 30 micromolar): 0 dpsec^−1 | Time to max (dose 30 micromolar): 180 s | Max I amplitude (dose 30 micromolar): 2.2 nA | Rate of inactivation (dose 50 micromolar): .02 dpsec^−1 | Time to max (dose 50 micromolar): 130 s | Max I amplitude (dose 50 micromolar): 1.6 nA | Rate of inactivation (dose 150 micromolar): .042 dpsec^−1 | Time to max (dose 150 micromolar): 96 s | Max I amplitude (dose 150 micromolar): 3.5 nA
